Experimental data: ChEMBL document CHEMBL1201862, “PubChem BioAssay data set” (2004)
Calls of active or inactive are those of the source.

Tests used:
[1] = HEp-2 cell cytotoxicity, dose response, cytotoxicity control for RSV inhibitor project, HTS (AID 2410); assay type: functional; conditions: human respiratory syncytial virus
[2] = inhibitors of intracellular T. cruzi replication, confirmation, NIH3T3 host cells, beta-gal luminescence (AID 2044); assay type: functional, cell-based;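 further: intracellular parasites grown in NIH/3T3 mouse fibroblasts as host cells; luminescent beta-galactosidase reporter signal from transgenic T. cruzi replicating inside host cells; inhibitors lower the luminescence signal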
[3] = growth suppression of PTEN-null colon cells, dose response, cell-based, HCT116 PTEN knockout (AID 1047); assay type: functional;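 further: HCT116 colon tumor cells with PTEN knocked out; cells exposed to compound for 60 hours before readout; potency for loss of cell viability measured by luminescence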
[4] = cytotoxicity toward NIH3T3 fibroblasts, dose response, counter-screen, cell-based, ATP luminescence, mouse fibroblasts (AID 2010); assay type: functional;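 further: cells exposed to compound for about 90 hours before reading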
[5] = growth suppression of beta-catenin-knockout colon cells, dose response, cell-based, HCT116, human colon tumor (AID 1045); assay type: functional;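 further: HCT116 colon tumor cells with beta catenin knocked out; cells exposed to compound for 60 hours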
[6] = target: Voltage-dependent T-type calcium channel subunit alpha-1H (Homo sapiens, UniProt O95180); assay type: functional;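 further: channel activity triggered by adding a high calcium stimulation buffer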
[7] = Luminescence Cell-Based Dose Retest to Confirm Inhibitors of Cancer Stem Cells. [Related pubchem assays (depositor defined):AID2717, AID2721]; assay type: functional; conditions: Homo sapiens
[8] = cells
[9] = system: HEK293; test: cells; conditions: Homo sapiens
[10] = system: HEK293; test: cells; conditions: Homo sapiens; remark: listed apart in the source
[11] = target: CAAX prenyl protease 2 (Homo sapiens, UniProt Q9Y256); test: human Rce1 protease inhibitors, dose response, biochemical, yeast membranes, quenched-peptide fluorescence, cherry-pick (AID 588849)
CAAX prenyl protease 2, sequence (Q9Y256 whole entry): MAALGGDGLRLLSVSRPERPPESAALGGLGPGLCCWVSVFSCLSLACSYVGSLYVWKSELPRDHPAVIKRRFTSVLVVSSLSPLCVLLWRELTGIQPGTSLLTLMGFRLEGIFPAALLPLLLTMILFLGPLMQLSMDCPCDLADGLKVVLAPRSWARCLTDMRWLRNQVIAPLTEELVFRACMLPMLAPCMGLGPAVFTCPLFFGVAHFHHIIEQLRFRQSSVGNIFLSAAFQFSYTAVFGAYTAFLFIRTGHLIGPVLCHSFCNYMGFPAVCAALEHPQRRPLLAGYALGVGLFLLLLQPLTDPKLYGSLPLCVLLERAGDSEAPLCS

[12] = system: Candida albicans; test: growth inhibition of resistant C. albicans, dose response, CaCi-8, fluconazole, Alamar Blue, dry powder (AID 488807); assay type: functional, organism-based
[13] = NIH-3T3 fibroblast cytotoxicity, dose response, cytotoxicity control, cell-based, fluorescence, Alamar Blue, secondary assay (AID 2327); assay type: functional;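 further: NIH-3T3 mouse fibroblasts cultured with fluconazole at 8 µg/mL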
[14] = C. albicans growth with fluconazole, confirmation, fluorescence, retest (AID 2467); assay type: functional, cell-based
[15] = target: Serine/threonine-protein phosphatase (Candida dubliniensis (strain CD36 / CBS 7987 / NCPF 3949 / NRRLY-17841) (Yeast), UniProt B9W6M3); test: calcineurin pathway inhibitors in yeast reporter, dose response, S. cerevisiae, CDRE-lacZ, luminescence, secondary (AID 2388); assay type: functional, cell-based;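 further: yeast reporter cells carrying a calcineurin-responsive lacZ construct stimulated with calcium chloride; luminescent beta-galactosidase reporter signal in whole cells rather than isolated phosphatase activity; potency for inhibition where a drop in reporter signal means calcineurin blockade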
[16] = target: T1, Calpain-2 catalytic subunit (Sus scrofa, UniProt P43367); test: pig calpain II inhibitor potency, dose response, biochemical, fluorogenic peptide substrate (AID 1420); assay type: functional
T1 sequence (P43367 whole entry): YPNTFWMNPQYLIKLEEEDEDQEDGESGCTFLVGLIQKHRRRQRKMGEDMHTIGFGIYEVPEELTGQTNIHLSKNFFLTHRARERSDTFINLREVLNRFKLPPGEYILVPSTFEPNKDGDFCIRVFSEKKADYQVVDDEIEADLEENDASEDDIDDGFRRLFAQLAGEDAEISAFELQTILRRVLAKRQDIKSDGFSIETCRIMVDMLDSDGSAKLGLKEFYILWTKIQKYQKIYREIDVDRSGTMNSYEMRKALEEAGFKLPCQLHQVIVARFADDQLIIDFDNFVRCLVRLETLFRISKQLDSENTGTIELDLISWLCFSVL

[17] = target: ATP-dependent molecular chaperone HSP82 (Candida albicans (strain WO-1) (Yeast), UniProt C4YTQ8); test: loss of DOC-induced GRE-beta-galactosidase reporter signal, dose response, Hsp90 inhibitor project, S. cerevisiae, luminescence (AID 2400); assay type: functional, cell-based;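 further: beta-galactosidase luminescence from glucocorticoid response element reporter as proxy for Hsp90 function; inhibitor potency where signal loss means Hsp90 inhibition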
[18] = growth induction of Burl-1 ts yeast mutant, dose response, counter-screen for SUMOylation pathway inhibitor project, whole organism, S. cerevisiae, luminescence (AID 463199); assay type: functional
[19] = target: Phospholipase D1 (Homo sapiens, UniProt Q13393); test: PLD1 inhibitor potency in cells, dose response (AID 602151); assay type: functional;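 further: cellular PLD1 assay in Calu-1 cells stimulated with PMA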
Phospholipase D1, sequence (Q13393 whole entry): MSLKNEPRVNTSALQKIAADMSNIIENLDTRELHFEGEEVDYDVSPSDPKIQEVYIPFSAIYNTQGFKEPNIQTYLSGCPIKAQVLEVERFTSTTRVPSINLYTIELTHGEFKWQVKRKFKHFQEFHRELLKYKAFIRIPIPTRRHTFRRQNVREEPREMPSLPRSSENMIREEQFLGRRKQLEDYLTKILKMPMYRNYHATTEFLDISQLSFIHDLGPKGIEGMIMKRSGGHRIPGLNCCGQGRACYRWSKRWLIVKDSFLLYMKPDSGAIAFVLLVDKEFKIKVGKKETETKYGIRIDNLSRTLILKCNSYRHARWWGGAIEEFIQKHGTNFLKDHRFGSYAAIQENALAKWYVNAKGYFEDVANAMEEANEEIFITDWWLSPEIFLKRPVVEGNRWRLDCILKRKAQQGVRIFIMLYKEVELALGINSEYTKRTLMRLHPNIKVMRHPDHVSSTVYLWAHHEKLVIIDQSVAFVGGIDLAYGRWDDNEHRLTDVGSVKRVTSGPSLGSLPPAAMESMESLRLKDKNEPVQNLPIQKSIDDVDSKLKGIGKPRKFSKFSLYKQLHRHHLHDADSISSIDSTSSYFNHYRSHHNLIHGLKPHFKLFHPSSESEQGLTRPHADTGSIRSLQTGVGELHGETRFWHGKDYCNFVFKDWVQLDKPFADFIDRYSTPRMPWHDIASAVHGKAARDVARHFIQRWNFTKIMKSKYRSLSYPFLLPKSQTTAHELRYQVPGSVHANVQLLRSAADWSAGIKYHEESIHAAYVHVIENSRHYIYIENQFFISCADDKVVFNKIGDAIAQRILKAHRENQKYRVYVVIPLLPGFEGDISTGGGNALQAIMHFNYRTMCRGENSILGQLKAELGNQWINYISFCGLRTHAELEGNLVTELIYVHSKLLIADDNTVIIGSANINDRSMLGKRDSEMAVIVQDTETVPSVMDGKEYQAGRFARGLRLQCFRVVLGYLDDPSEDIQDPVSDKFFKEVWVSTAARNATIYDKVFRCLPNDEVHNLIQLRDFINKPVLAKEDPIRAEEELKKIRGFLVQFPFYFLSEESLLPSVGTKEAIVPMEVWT

[20] = target: Phospholipase D2 (Homo sapiens, UniProt O14939); test: PLD2 inhibitor potency in cells, dose response (AID 602147); assay type: functional;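 further: cellular assay in HEK293 cells overexpressing GFP-tagged PLD2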
Phospholipase D2, sequence (O14939 whole entry): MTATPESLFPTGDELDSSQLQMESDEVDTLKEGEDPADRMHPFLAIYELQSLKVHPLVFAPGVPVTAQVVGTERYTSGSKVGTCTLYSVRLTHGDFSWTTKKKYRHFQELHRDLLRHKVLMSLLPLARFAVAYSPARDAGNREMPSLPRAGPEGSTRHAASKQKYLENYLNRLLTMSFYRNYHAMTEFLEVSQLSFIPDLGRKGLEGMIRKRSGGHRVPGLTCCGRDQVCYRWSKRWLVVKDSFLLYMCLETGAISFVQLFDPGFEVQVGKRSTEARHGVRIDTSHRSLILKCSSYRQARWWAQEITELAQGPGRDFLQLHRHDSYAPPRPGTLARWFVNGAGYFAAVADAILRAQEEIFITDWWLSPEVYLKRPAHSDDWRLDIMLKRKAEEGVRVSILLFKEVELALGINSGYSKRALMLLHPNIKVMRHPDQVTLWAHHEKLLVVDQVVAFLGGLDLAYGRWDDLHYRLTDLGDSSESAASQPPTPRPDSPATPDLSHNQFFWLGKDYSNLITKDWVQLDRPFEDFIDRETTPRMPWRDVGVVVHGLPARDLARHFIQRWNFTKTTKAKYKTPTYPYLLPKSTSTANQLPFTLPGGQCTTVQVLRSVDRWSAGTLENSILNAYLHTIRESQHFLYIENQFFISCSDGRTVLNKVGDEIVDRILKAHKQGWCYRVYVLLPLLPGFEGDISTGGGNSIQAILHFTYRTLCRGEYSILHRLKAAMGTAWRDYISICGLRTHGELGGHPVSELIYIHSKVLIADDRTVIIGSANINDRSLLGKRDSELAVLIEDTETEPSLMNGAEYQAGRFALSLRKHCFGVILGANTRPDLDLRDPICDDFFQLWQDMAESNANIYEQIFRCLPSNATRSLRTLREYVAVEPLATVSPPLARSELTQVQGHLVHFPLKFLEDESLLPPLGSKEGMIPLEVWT

[21] = system: A-375; test: MITF: Counter assay: A375 proliferation Measured in Cell-Based System Using Plate Reader - 2084-03_Inhibitor_Dose_DryPowder_Activity. [Related pubchem assays (depositor defined):AID488944]; assay type: functional; conditions: Homo sapiens
[22] = system: A-375; test: A375 melanoma cell viability reduction, dose response, counter-screen for MITF modulator project, cherry-pick samples, set 2 (AID 540335); assay type: functional, cell-based; conditions: Homo sapiens
[23] = insulin promoter down-regulators in MIN6 cells, imaging, high-content screening, mouse beta cells (AID 1628); assay type: functional
[24] = system: Streptococcus sp. 'group A'; test: growth inhibition of control SK(-) GAS strain, dose response, counter-screen for streptokinase expression inhibitor project, luminescence, kanamycin, BacTiterGlo, confirmation (AID 1900); assay type: functional, organism-based
[25] = cytotoxicity in MIN6 insulinoma cells, dose response, cytotoxicity control, cell-based, mouse insulinoma (AID 2122); assay type: functional;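 further: confirmatory high-throughput counterscreen run to flag cytotoxic compounds; mouse MIN-6 beta cells carrying an insulin promoter eGFP reporter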
[26] = target: T2, Streptokinase A (Streptococcus pyogenes serotype M1, UniProt P10520); test: S. pyogenes streptokinase expression inhibitors, potency, dose response, plasminogen activation absorbance, OD405 (AID 1914); assay type: functional, Streptococcus pyogenes M1 GAS;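 further: secreted streptokinase activity via plasminogen activation per viability signal from cell pellet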
T2 sequence (P10520 whole entry): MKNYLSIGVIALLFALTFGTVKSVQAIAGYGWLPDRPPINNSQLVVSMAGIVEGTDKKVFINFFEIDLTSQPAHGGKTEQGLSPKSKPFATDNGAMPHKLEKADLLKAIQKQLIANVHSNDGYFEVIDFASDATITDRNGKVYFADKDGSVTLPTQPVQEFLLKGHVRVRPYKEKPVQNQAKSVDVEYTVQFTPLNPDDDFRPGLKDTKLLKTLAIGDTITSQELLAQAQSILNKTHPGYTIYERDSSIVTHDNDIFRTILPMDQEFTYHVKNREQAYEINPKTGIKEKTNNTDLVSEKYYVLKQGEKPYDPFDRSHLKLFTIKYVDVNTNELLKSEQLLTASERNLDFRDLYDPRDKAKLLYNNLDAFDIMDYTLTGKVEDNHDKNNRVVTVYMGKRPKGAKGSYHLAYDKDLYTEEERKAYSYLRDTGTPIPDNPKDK

[27] = target: Voltage-gated inwardly rectifying potassium channel KCNH2 (Homo sapiens, UniProt Q12809); test: hERG protection from proarrhythmic block, potency, dose response, cell-based, thallium flux (AID 2121); assay type: ADME
Voltage-gated inwardly rectifying potassium channel KCNH2, sequence (Q12809 whole entry): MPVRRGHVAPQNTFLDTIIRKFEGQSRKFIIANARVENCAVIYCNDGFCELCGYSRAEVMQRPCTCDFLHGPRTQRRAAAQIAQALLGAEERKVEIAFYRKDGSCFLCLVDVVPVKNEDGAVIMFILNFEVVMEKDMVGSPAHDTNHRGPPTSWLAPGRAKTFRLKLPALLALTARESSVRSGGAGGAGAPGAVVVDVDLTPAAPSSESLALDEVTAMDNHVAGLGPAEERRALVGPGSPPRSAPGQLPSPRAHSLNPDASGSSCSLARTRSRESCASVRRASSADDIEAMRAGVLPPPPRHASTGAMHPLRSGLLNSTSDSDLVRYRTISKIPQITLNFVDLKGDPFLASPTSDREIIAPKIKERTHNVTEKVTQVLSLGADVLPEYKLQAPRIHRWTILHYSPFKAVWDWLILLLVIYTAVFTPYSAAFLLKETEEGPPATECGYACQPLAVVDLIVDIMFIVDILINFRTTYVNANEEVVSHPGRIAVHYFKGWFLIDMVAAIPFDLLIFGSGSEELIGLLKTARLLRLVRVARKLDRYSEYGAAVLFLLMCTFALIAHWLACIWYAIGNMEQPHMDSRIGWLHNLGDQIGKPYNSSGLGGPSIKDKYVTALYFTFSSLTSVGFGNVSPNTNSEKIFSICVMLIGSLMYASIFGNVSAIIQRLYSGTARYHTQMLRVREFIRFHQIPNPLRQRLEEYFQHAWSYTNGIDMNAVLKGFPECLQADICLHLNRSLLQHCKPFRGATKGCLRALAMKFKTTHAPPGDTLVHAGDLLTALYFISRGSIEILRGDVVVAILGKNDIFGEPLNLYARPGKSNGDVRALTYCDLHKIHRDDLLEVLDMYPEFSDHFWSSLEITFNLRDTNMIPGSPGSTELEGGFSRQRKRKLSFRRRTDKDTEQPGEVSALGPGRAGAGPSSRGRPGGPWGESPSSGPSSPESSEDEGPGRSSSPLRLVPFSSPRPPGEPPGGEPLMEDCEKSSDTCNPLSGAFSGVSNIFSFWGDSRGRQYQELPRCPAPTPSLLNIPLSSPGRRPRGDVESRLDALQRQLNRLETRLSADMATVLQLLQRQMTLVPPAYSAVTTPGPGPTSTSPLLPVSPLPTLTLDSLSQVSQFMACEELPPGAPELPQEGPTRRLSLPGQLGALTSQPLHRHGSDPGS

[28] = system: Streptococcus; test: Group A Streptococcus viability loss, dose response, counter-screen for streptokinase expression inhibitor project, luminescence, BacTiterGlo (AID 1915); assay type: functional, organism-based;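 further: potency for reduction of bacterial viability or growth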
[29] = system: HEK293; test: inhibitors of LMP1-driven NF-kB reporter, dose response, cell-based, HEK293, luciferase, cherry-pick (AID 588343); assay type: functional; conditions: Homo sapiens
[30] = target: T3, Microphthalmia-associated transcription factor (Homo sapiens, UniProt O75030); test: TRPM1 promoter luciferase signal decrease, dose response, MITF inhibitor project, cell-based, SK-MEL-5, cherry-picked, set 3 (AID 493073); assay type: functional
T3 sequence (O75030 whole entry): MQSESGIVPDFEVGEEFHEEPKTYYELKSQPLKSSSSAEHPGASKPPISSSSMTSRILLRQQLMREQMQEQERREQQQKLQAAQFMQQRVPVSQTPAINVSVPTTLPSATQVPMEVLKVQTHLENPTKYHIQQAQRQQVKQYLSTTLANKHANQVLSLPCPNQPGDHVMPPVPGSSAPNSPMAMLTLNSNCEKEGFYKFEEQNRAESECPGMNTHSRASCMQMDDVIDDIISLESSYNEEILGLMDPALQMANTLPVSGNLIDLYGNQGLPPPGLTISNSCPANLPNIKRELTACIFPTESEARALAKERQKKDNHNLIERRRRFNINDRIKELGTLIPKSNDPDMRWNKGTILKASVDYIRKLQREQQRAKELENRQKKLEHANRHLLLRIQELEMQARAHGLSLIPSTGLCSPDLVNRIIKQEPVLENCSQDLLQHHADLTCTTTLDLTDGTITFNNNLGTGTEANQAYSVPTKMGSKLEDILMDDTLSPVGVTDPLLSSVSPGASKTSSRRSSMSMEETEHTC

[31] = target: Delta-type opioid receptor (Homo sapiens, UniProt P41143); test: Counterscreen for agonists of heterodimerization of the mu 1 (OPRM1) and delta 1 (OPRD1) opioid receptors: Luminescence-based cell-based high throughput dose response assay to identify agonists of OPRD1 homodimerization. [Related pubchem assays (depositor defined):AID504326, AID504355, AID504692, AID504904, AID504905]; assay type: functional
[32] = target: Mu-type opioid receptor (Homo sapiens, UniProt P35372); test: Counterscreen for agonists of heterodimerization of the mu 1 (OPRM1) and delta 1 (OPRD1) opioid receptors: Luminescence-based cell-based high throughput dose response assay to identify agonists of OPRM1 homodimerization.; assay type: functional;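 further: U2OS cells expressing OPRM1 and beta-arrestin as split beta-galactosidase partners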
Mu-type opioid receptor, sequence (P35372 whole entry): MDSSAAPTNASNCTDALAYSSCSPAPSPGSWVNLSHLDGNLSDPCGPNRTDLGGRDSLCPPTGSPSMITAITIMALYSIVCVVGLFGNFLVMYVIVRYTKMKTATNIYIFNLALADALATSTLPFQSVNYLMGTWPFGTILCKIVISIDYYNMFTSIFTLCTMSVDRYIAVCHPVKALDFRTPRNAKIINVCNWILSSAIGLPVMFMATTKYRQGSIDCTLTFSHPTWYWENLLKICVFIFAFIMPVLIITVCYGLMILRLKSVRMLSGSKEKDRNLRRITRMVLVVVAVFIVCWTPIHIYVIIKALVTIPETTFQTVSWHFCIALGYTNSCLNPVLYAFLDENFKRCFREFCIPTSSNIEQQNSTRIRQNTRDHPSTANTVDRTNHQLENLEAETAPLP

[33] = target: 5-hydroxytryptamine receptor 5A (Homo sapiens, UniProt P47898); test: Counterscreen for agonists of OPRM1-OPRD1 heterodimerization: luminescence-based cell-based high throughput dose response assay to identify agonists of 5-hydroxytryptamine (serotonin) 5A receptor (HTR5A). [Related pubchem assays (depositor defined):AID504326, AID504355, AID504692, AID504904, AID504905]; assay type: functional
5-hydroxytryptamine receptor 5A, sequence (P47898 whole entry): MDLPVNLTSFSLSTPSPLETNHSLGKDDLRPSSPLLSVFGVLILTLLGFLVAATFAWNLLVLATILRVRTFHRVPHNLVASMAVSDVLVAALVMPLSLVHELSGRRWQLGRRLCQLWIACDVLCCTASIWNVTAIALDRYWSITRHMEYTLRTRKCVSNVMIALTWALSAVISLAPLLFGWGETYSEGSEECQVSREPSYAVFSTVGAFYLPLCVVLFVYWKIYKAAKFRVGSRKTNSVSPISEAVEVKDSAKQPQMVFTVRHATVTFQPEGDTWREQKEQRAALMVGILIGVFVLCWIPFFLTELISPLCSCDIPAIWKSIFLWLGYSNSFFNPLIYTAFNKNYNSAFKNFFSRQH

[34] = target: G-protein coupled receptor 55 (Homo sapiens, UniProt Q9Y2T6); test: GPR55 agonists via beta-arrestin recruitment, primary screen, imaging, U2OS cells, beta-arrestin-GFP redistribution (AID 1961); assay type: functional
G-protein coupled receptor 55, sequence (Q9Y2T6 whole entry): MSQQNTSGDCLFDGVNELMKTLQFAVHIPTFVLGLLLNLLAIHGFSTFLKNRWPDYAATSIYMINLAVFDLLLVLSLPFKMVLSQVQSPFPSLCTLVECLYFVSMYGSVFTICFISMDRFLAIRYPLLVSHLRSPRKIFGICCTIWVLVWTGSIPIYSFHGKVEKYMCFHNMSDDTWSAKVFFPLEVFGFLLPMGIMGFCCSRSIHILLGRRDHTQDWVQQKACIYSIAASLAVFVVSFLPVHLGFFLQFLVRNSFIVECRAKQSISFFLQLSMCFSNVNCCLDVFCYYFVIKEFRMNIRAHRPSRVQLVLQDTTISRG

[35] = target: Beta-2 adrenergic receptor (Homo sapiens, UniProt P07550); test: beta2AR agonists driving receptor internalization, dose response, cell-based, FAP fluorogen, flow cytometry, cherry pick 1 (AID 588763); assay type: functional
Beta-2 adrenergic receptor, sequence (P07550 whole entry): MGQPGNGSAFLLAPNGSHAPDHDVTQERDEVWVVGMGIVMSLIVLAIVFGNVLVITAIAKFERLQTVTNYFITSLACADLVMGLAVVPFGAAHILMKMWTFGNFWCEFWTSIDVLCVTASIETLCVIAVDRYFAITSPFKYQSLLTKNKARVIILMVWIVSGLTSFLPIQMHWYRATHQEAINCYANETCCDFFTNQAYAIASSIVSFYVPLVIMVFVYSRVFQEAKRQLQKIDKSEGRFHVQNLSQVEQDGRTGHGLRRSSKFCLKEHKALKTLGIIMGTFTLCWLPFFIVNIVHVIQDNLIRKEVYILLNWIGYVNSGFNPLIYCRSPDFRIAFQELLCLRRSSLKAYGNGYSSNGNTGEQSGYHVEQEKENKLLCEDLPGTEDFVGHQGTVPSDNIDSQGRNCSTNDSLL

[36] = Luminescence Cell-Based Dose Response Follow up to Identify Inhibitors of Platelet Dense Granule Release. [Related pubchem assays (depositor defined):AID1663, AID1678, AID2398]; assay type: functional

CCN(CC)S(=O)(=O)c1ccc2c(c1)C(=NO)c1cc(S(=O)(=O)N(CC)CC)ccc1-2
CC50 [1]: 9.81 µM (active) | EC50 [2]: 0.84 µM (active) | EC50 [3]: 6.41 µM (active) | EC50 [4]: < 6 µM (inconclusive) | EC50 [5]: 7.08 µM (active) | EC50 [6]: 1.6 µM (active) | AC50 [7]: 0.742 µM (active) | IC50 [8]: 5.19 µM (active) | EC50 [9]: > 59.6 µM (inactive) | EC50 [10]: > 59.6 µM (inactive)

CCOC(=O)C1CCCN(S(=O)(=O)c2cc3nc(O)c(O)nc3cc2C)C1 (centres undefined)
AC50 [11]: 21.8 µM (active)

COC(=O)Cn1nc(-c2ccc(C)cc2)c2ccccc21
AC50 [12]: 1.45 µM (active)

CCOc1ccc(NC(S)=NNC(=O)c2ccc(Br)cc2)cc1
EC50 [13]: > 160 µM (inactive) | EC50 [14]: 0.688 µM (active) | EC50 [15]: > 180 µM (inactive) | IC50 [16]: > 50 µM (not active) | EC50 [17]: > 160 µM (inactive)

O=C(O)/C=C\C(=O)NC1CCCCC1
AC50 [18]: 54.1 µM (active)

C[C@@H](CN1CCC(n2c(=O)[nH]c3cc(F)ccc32)CC1)NC(=O)c1ccc(F)c(F)c1
IC50 [19]: 0.012 µM (active) | IC50 [20]: 0.84 µM (active)

CCOc1ccccc1-c1nc(-c2ccc(C)nc2OC)no1
AC50 [21]: > 35 µM (active) | AC50 [22]: > 35 µM (active)

Oc1c(N=NC(S)=Nc2ccccc2F)c2ccccc2n1Cc1ccccc1
IC50 [23]: 6.95 µM (active) | EC50 [24]: 0.562 µM (active) | IC50 [25]: 10.1 µM (inactive) | EC50 [26]: > 150 µM (not active) | EC50 [27]: 0.89 µM (active) | EC50 [28]: 6.93 µM (active) | AC50 [29]: 3.07 µM (active)

Cc1ccc(NC(=O)c2ncn(CCCN[C@H](C)c3cccc4ccccc34)n2)cc1C
AC50 [30]: 22.7 µM (active) | EC50 [31]: > 92.4 µM (inactive) | EC50 [32]: > 10.3 µM (inactive) | AC50 [21]: 25.8 µM (active) | EC50 [33]: > 92.4 µM (inactive)

COc1ccc(C2C(C#N)=C(N)Oc3c2sc2nc(C)cc(C)c32)cc1 (centres undefined)
EC50 [3]: 4.6 µM (active) | EC50 [5]: 5.01 µM (active) | EC50 [34]: 3.41 µM (active) | EC50 [35]: 9.58 µM (inactive)

CC(=O)Nc1c(C#N)c(-c2ccccc2)c(C#N)c(=O)n1-c1ccc(C)cc1
EC50 [36]: 129 µM (active)
